From US11479604B2, “Immunomodulatory peptides and methods for modulating the immune system in a subject” (Recepta Biopharma S.A., priority 2017, dated 2022)

Key:
[1] = system: mo-DC obtained from cancer patients' monocytes; assay: Allogeneic T cell proliferation induced by cancer patients' mo-DC; format: cell-based, human
Experimental: Mo-DC were co-cultured with allogeneic lymphocytes (DC:Ly=1:30) to evaluate their ability to induce lymphocyte proliferation. This was measured by carboxyfluorescein succinimidyl ester (CFSE—Molecular Probes) dilution and activation measured by correlation among CD4/CD25 and Foxp3 expression (Clavijo-Salomon et al., 2016).
(§1) Since it is well known that mo-DC from cancer patients can be functionally biased, but are not always so, the patients were separated into two groups, according to their mo-DC ability to induce allogeneic T cell proliferation. Patients whose mo-DC induced less than 35% of the phytohemagglutinin A (PHA)-induced response constituted one group (“defective”) and those whose mo-DC induced a response higher than 35% of the PHA response, the other (“normal”).

[2] = system: B16F10-Nex2 melanoma cells; assay: Prophylactic adoptive transfer of peptide-stimulated dendritic cells, metastatic melanoma; format: in vivo, syngeneic mice; details: DCs incubated with 50 μg/ml peptide, with or without tumor cell lysate; s.c.; tumor challenge day 14, count day 29
Experimental: DCs were obtained from the bone marrow of 6 to 8-week-old C57Bl6 mice. Briefly, femora and tibiae from mice were removed and stripped of muscles and tendons; both bone ends were cut, and bone marrow was extracted by placing the bone pieces into 1-ml tips, which in turn were inserted into 15-ml tubes and centrifuged for 10 minutes at 1500 rpm. Cells were resuspended in DMEM and cell clusters were dissociated by repeated pipetting. The total bone marrow cells were cultured in 100-mm treated tissue culture dish in 10 ml of R10 medium (DMEM medium supplemented with 2 mM glutamine, 10,000 U/ml penicillin, 10 mg/ml streptomycin, 50 μM 2-mercaptoethanol, 1 mM sodium pyruvate, MEM-nonessential aminoacids, MEM Vitamin solution, 10% heat-inactivated fetal bovine serum and GM-CSF (20 ng/ml) and IL-4 (40 ng/ml). Fresh medium (3 ml) with GM-CSF (200 ng/ml) and IL-4 (400 ng/ml) was added every 3 days. On day 7, adherent cells, that were harvested using PBS 2 mM EDTA, together with the non-adherent cells were pooled and used as the starting cell source for the experiments. BMDC Protocol 2
DCs were inoculated s.c. in syngeneic mice. On day 14, mice were inoculated i.v. with melanoma tumor cells (5×10^5 cells) and on day 29, the lung melanotic nodules were counted.

[3] = system: mo-DC obtained from cancer patients' monocytes; assay: Surface phenotype of mo-DC from cancer patients; format: cell-based, human
Experimental: Peripheral blood mononuclear cells (PBMCs) were isolated by centrifugation over Ficoll-Paque Plus (GE Healthcare). After a 2 h-incubation in plastic 6-well plates, non-adherent cells were removed from culture and adherent cells (monocytes) were cultivated for 7 days in RPMI-1640 culture medium (Gibco, Grand Island, N.Y., USA), supplemented with 10% FCS (Gibco) plus antibiotic-antimycotic (Gibco) and in the presence of GM-CSF (50 ng/ml—Peprotech, Mexico) and IL-4 (50 ng/ml—Peprotech). At day 5 of culture TNF-α (50 ng/ml; Peprotech, Mexico) was added for mo-DC maturation.
Human cells were analyzed in a similar manner, but staining was performed in BSA-PBS, without EDTA. Antibodies against CD11c, CD14, CD80, CD83, CD86, HLA-ABC, HLA-DR, CCR7, PD-L1, conjugated with different fluorochromes and live/dead labeling (Molecular Probes, Oregon, USA) were used. Acquisition was performed in a FACSCanto II analyzer (BD Biosciences) and analyzed with the FlowJo Software X.10.07r2 (Tree Star).
as §1

[4] = system: human mo-DC from healthy donors; assay: mo-DC generated under tolerogenic, TNF-alpha or LPS conditions, flow cytometry; format: cell-based
Experimental: To further evaluate and confirm this property, mo-DC were generated from healthy donors cells in three different conditions, all in the presence of GM-CSF (50 ng/mL) and IL-4 (50 ng/mL). To one group of cells at day 5, TGF-beta ([…]) and IL-10 (1 ug/mL) were added; to a second group, at day 5, TNF-alpha was added and to a third group, LPS (100 ng/mL) was added at day 6. The first condition is known to induce phenotypic changes in mo-DC consistent with a tolerogenic activity of the cells, while both other conditions generate mature mo-DC, with LPS representing a stronger maturation stimulus than TNF-alpha. […] At day 7 all cells were harvested and analyzed by flow cytometry.

splenocytes = assay: Splenocyte cytokine production in melanoma-bearing treated mice (ELISA); format: in vivo; details: 300 μg i.p. 5 consecutive days
Experimental: Mice were challenged with 5×10^5 B16F10-Nex2 cells via the i.v. route. […] Peptides at 300 μg solubilized in 10 μl distilled H2O and 90 μl of PBS were injected via i.p. route per animal, for 5 consecutive days initiating one day after tumor cell challenge. Seventeen days after tumor challenge mice were sacrificed and spleens were removed. Splenocytes after incubation in hemolysis buffer were suspended in R10 medium and plated in 6-well plates and 10^6 cells/well. Cells were incubated for 72 h with or without tumor cell lysate (from 10^5 B16F10-Nex2 cells) in triplicate. The supernatants were collected, and cytokines measured by ELISA (FIG. 11).

B16F10-Nex2 cells = assay: Anti-melanoma antibodies in sera of treated mice; format: in vivo; details: 1/5 diluted sera; BSA treated or untreated tumor cells
[5] = tolerogenic conditions (TGF-beta+IL-10)

[CARGETARATFAYWGQGC], NH2 (C-C) [Rb9]
ability of "defective" mo-DC to induce allogeneic T cell proliferation [1]: enhanced the ability
lympho-stimulatory activity of "normal" mo-DC [1]: inhibited the lympho-stimulatory activity
protective effect of peptide-stimulated DCs (lung melanotic nodules) [2]: remarkable protective effect
effects on surface phenotype of cancer patients' mo-DC ([3]; all patients): heterogeneous
effect on phenotype (differentiation, maturation) of "defective" mo-DC ([3]; patients whose mo-DC induced less than 35% of the PHA-induced response): clearly affected the phenotype
effect on phenotype of "normal" mo-DC ([3]; patients whose mo-DC induced more than 35% of the PHA response): little effect
number of CD11c+HLA-DR+ cells ([4]; LPS-treated cells): decreased the number of cells
percentage of CD11c+HLA-DR+ cells ([4]; TGF-beta+IL-10 group): increased the percentage of cells
percentage of CD11c+HLA-DR+ cells ([4]; TNF group): little effect
co-stimulatory potential (CD80 and CD86 double-positive cells) ([4]; mild stimulus (TNF-alpha)): partially inhibitory
maturation of mo-DC (HLA-DR+CD83+) ([4]; mild stimulus (TNF-alpha)): enhanced their maturation
co-stimulatory potential (CD80 and CD86 double-positive cells) ([4]; strongly stimulated by LPS): clearly inhibitory
maturation of mo-DC (HLA-DR+CD83+) ([4]; strongly stimulated by LPS): inhibitory
co-stimulatory potential (CD80 and CD86 double-positive cells) [4, 5]: increased their co-stimulatory potential
maturation of mo-DC (HLA-DR+CD83+) [4, 5]: increased the maturation
IL-12 production in splenocytes (splenocytes; no stimulus necessary): comparable in the three groups
IFN-gamma production in splenocytes (splenocytes; splenocytes with tumor cell lysate 72 h, relative to untreated control): increased
IL-10 production in splenocytes (splenocytes; with tumor cell lysate): no effect
TNF-alpha production in splenocytes (splenocytes; with tumor cell lysate): no effect
IL-6 production in splenocytes (splenocytes; with tumor cell lysate, relative to untreated control): decreased
reactivity of sera with B16F10-Nex2 cells, i.d. relative to i.p. administration (B16F10-Nex2 cells): 4-5 times
